A short description of this test: In vitro inhibition of calcium phosphate crystallization in human plasma (spectrophotometric, 550 nm). The test is classed as biochemical. Particulars: 0-100 μM compound, 1.5 mM phosphate and 12.5 mM calcium, pH 7.4, 30 min at rt, slope between 6 and 24 min, read-out: Relative Potency (EC50). Here is the method:
The in vitro efficacy of the IP5 substituted compounds (e.g., Compounds 1 to 32) of the invention on the inhibition of calcium phosphate crystallization in human plasma samples was evaluated according to a spectrophotometric assay previously described in the art (Ferrer M, et al., Sci Rep 2017; 7:6858, doi:10.1038/s41598-017-07203-x).
A 96-well plate was employed. Plasma was spiked (1 volume of the IP5 substituted compounds of the invention per 19 volumes of plasma) with increasing concentrations of the derivatives in the range of 0-100 μM. Plasma was then centrifuged at 10,000 g at rt and subsequently mixed with a mixture of 5 mM hydrogen phosphate and 41.67 mM calcium to attain final concentrations of 1.5 mM phosphate and 12.5 mM calcium, respectively. All reagent solutions were filtered, and pH adjusted to 7.4.
Crystallization of calcium phosphate was monitored spectrophotometrically for 30 min at rt by measuring the increments in absorbance at 550 nm using the Biotek Powerwave XS Microplate spectrophotometer (BioTek Instruments, Inc., Winooski, VT, US). The plate was incubated at rt in an orbital shaker and absorbance measured every 3 min.
Plasma crystallization was assessed based on slope measurement in the linear range between 6 and 24 min from plots of increase in absorbance versus logarithm of time. The efficacy of different myo-inositol phosphates derivatives in preventing in vitro formation of calcium phosphate crystals was assessed in human plasma samples using the slopes obtained between 6- and 24-min. Inhibition of crystallization was measured by comparing the slopes of the control sample (blank plasma) with those of samples containing the inhibitor as shown below: […]

pEC50: −log10 of the molar value. Where a name gives a salt, the structure may show the parent alone. Read-outs that look alike come from different tables or passages of the source.

As a reminder, the pEC50 is −log10 of the EC50, conventionally taken in molar units.

Regarding `O=P(O)(O)OC1C(OCCC2CCCC2)C(OP(=O)(O)O)C(OP(=O)(O)O)C(OP(=O)(O)O)C1OP(=O)(O)O` (racemic) [Compound 16, rac-4-O-(2-Cyclopentylethyl)-myo-inositol-1,2,3,5,6-pentakis(phosphate) decasodium salt], the pEC50 is at least 5.30.

As for “2-O-Pentyl-myo-inositol-1,3,4,5,6-pentakis(phosphate) decasodium salt [Compound 6]”, the pEC50 was at least 5.30.

Consider `O=P(O)(O)OC1C(OCCC2CC2)C(OP(=O)(O)O)C(OP(=O)(O)O)C(OP(=O)(O)O)C1OP(=O)(O)O` (centres unmarked) [Compound 39, 2-O-(2-Cyclopropylethyl)-myo-inositol-1,3,4,5,6-pentakis(phosphate) decasodium salt], for which the pEC50 is 5.00 to 5.30.

As to “2-O-((1-(2-Carboxyethyl)-1H-1,2,3-triazol-4-yl)methyl)-myo-inositol-1,3,4,5,6-pentakis(phosphate) undecasodium salt [Compound 42]”, the pEC50 is 5.00 to 5.30.

On to `O=P(O)(O)OC1C(OCCCCCO)C(OP(=O)(O)O)C(OP(=O)(O)O)C(OP(=O)(O)O)C1OP(=O)(O)O` (centres unmarked) [Compound 40, 2-O-(5-Hydroxypentyl)-myo-inositol-1,3,4,5,6-pentakis(phosphate) decasodium salt], for which the pEC50 was 5.00 to 5.30.

Consider “rac-1-O-(9-Methoxynonyl)-myo-inositol-2,3,4,5,6-pentakis(phosphate) decasodium salt [Compound 47]”, for which the pEC50 was at least 5.30.

Consider “rac-4-O-(10-Carboxyldecyl)-myo-inositol-1,2,3,5,6-pentakis(phosphate) undecasodium salt [Compound 20]”, for which the pEC50 was below 5.00.

Take “2-O-(5-(4-(Methoxymethyl)-1H-1,2,3-triazol-1-yl)pentyl)-myo-inositol-1,3,4,5,6-pentakis(phosphate) decasodium [Compound 41]”: the pEC50 is below 5.00.

`O=P(O)(O)OC1C(OCCCCCC(F)(F)F)C(OP(=O)(O)O)C(OP(=O)(O)O)C(OP(=O)(O)O)C1OP(=O)(O)O` (racemic) [Compound 50, rac-1-O-(6,6,6-Trifluorohexyl)-myo-inositol-2,3,4,5,6-pentakis(phosphate) decasodium salt]: the pEC50 (30 min) is 5.00 to 5.30.

Regarding `O=P(O)(O)OC1C(OCCCCCC(F)(F)F)C(OP(=O)(O)O)C(OP(=O)(O)O)C(OP(=O)(O)O)C1OP(=O)(O)O` (centres unmarked) [Compound 36, 2-O-(6,6,6-Trifluorohexyl)-myo-inositol-1,3,4,5,6-pentakis(phosphate) decasodium salt], where the note is “30 min”, the pEC50 is at least 5.30.

Turning to `NC(=O)CCCCCO[C@H]1[C@@H](OP(=O)(O)O)[C@H](OP(=O)(O)O)[C@@H](OP(=O)(O)O)[C@H](OP(=O)(O)O)[C@H]1OP(=O)(O)O` [Compound 37, 2-O-(6-Amino-6-oxohexyl)-myo-inositol-1,3,4,5,6-pentakis(phosphate) decasodium salt], the pEC50 was 5.00 to 5.30.

Regarding `COCCCCCCCCCCCCCCCCCCCCCCCCCCCCCO[C@H]1[C@@H](OP(=O)(O)O)[C@H](OP(=O)(O)O)[C@@H](OP(=O)(O)O)[C@H](OP(=O)(O)O)[C@H]1OP(=O)(O)O` [Compound 10, 2-O-(29-methoxynonacosyl)-myo-inositol-1,3,4,5,6-pentakis(phosphate) decasodium salt], the pEC50 was at least 5.30.

With “2-O-(5-Acetamidopentyl)-myo-inositol-1,3,4,5,6-pentakis(phosphate) decasodium salt [Compound 35]”, the pEC50 is below 5.00.

For the compound `COc1ccc(CCCOC2C(OP(=O)(O)O)C(OP(=O)(O)O)C(OP(=O)(O)O)C(OP(=O)(O)O)C2OP(=O)(O)O)cc1` (racemic) [Compound 14, rac-4-O-(3-(4-Methoxyphenyl)propyl)-myo-inositol-1,2,3,5,6-pentakis(phosphate) decasodium salt], the pEC50 is at least 5.30.

For the origin of these results see patent publication US20260337211A1, “IP5 SUBSTITUTED COMPOUNDS” (SANIFIT THERAPEUTICS, S.A., priority 2022, published 2026).
